Assay results published in article PMC11002876, “KcsA-Kv1.x chimeras with complete ligand-binding sites provide improved predictivity for screening selective Kv1.x blockers” (The Journal of Biological Chemistry, 2024).
Where a SMILES comes first, the peptide text is derived from it.

Legend:
[1] = test system: human Kv1.3 channel (hKv1.3); assay: Whole-cell patch-clamp of phage-displayed toxins, hKv1.3 in human lymphocytes; type: cell-based; settings: for estimated relative potency in phage-displayed form: from phage concentrations required to reach 50% block of hKv1.3 current, Vm24 = 1, Fig. 9B; for inhibition of Kv1.3 current in phage-displayed form, in words: phage-displayed peptide, DDDKTX1- and KTX1-phage at 3.6 × 10^13 particle/ml
Protocol: Human Kv1.3 currents were recorded from activated peripheral blood mononuclear cells (see below) 3 to 4 days after activation. Heparinized human peripheral venous blood was obtained from healthy volunteers. Mononuclear cells were separated through Histopaque-1077 density gradient centrifugation. Collected cells were washed twice with Ca^2+- and Mg^2+-free Hanks’ solution containing 25 mM Hepes buffer, pH 7.4. Cells were cultured for 3 to 4 days in 24-well culture plates in a 5% CO2 incubator at 37 °C, in RPMI 1640 medium supplemented with 10% fetal calf serum (Sigma-Aldrich), 100 μg/ml penicillin, 100 μg/ml streptomycin, and 2 mM L-glutamine (density, 0.5 × 10^6 cells per ml). Phytohemagglutinin A (Sigma-Aldrich) was added to the medium at 10 μg/ml to amplify the Kv1.3 expression. Cells were washed gently twice with 2 ml of ECS for the patch-clamp experiments.
Conventional whole-cell patch-clamp electrophysiology was used to record ionic currents. Micropipettes were pulled from GC150F-7.5 borosilicate capillaries (Harvard Apparatus) with tip diameters between 0.5 and 1 μm resulting in a tip resistance of 2 to 8 MΩ in the extracellular (bath) solution. All measurements were carried out by using Axopatch 200B amplifier connected to a personal computer using Axon Digidata 1550A data acquisition hardware and Pclamp10.7 software (https://support.moleculardevices.com/s/article/Axon-pCLAMP-10-Electrophysiology-Data-Acquisition-Analysis-Software-Download-Page). The holding potential was −120 mV. Records were discarded when leak at the holding potential was >10% of peak current at the test potential. Experiments were performed at room temperature (20–24 °C). Before analysis, whole-cell current traces were corrected for ohmic leakage and digitally filtered with a three-point boxcar smoothing filter.
Solutions: all salts and components of the solutions were purchased from Sigma Aldrich. The extracellular (bath) solution (ECS) contained 145 mM NaCl, 5 mM KCl, 2.5 mM CaCl2, 1 mM MgCl2, 10 mM Hepes, and 5.5 mM glucose (pH 7.35 with NaOH), while the intracellular (pipette) solution (ICS) contained 140 mM KF, 2 mM MgCl2, 1 mM CaCl2, 11 mM EGTA, and 10 mM Hepes (pH 7.22 with KOH). The osmolarity of the ECS and ICS were 302 mOsM.
Native peptides, phage-expressed peptides, and positive controls used for them were dissolved in ECS supplemented with 0.1 mg/ml bovine serum albumin (BSA; Sigma-Aldrich Hungary). Bath perfusion around the measured cell with different extracellular solutions was achieved using a gravity flow micro perfusion system using a rate of 0.5 ml/min. Excess fluid was removed continuously.
Voltage protocols: For measurement of Kv1.1 to 1.3 currents, voltage steps to +50 mV were applied from a holding potential of −120 mV and the peak current was measured every 15 s. For Kv1.3 currents, 15-ms-long depolarizing pulses were applied. For Kv1.1, 50-ms-long–activating stimuli were used. Kv1.2 currents were evoked by 200-ms-long pulses. […] The remaining current fraction at a given molar concentration was calculated as I/I0, where I0 is the peak current in the absence and I is the peak current at equilibrium block or […] after ∼2 min perfusion by the investigated peptide/phage.
Phage display test solutions were prepared according to routine phage display protocols ([62]). Phosphorylated and annealed oligonucleotides encoding the peptide construct were ligated into linearized pAS62 phagemid vector (https://patents.google.com/patent/WO2022144560A1/en) at a vector/insert ratio of 1:3. The final phagemid construct harbored a signal sequence followed by the peptide of interest, a linker sequence ([…]), and the C-terminal part of the P3 coat protein (amino acids: 216-424 of NP_510891.1). Chemically competent XL1-Blue E. coli cells (2022249, Agilent) were transformed with the ligation product and then streaked onto ampicillin (100 μg/ml) containing LB/Amp plates and incubated for 16 h at 37 °C.

human Kv1.3 = settings: cited from earlier work; for IC50: human Kv1.3 channel blocking, patch-clamp, read-out: IC50, Kv1.x blocking (Kv1.3)
Source text: Table 1 Summary of chimeric protein-binding prediction studies in the light of IC50 values | column: Kv1.x blocking / IC50 (nM) || Peptide toxins of venomous animal origin as lead molecules for optimization may offer an advantage over small molecules in terms of potentially greater affinity and specificity. These miniproteins are usually up to 50 amino acids in length and can adopt distinct conformation with secondary structural elements stabilized by several disulfide bonds ([9], [10], [11]). Due to their considerable surface area, miniproteins can form stable complexes with target proteins through extensive interaction surfaces ([12], [13]). The miniprotein Kv1.3 blocker drug candidate, Dalazatide—a synthetic derivative ... || Our initial investigation focused on assessing the relative binding affinities of various channel-blocking toxins to the T-only version of the KcsA-Kv1.3 chimera. Subsequently, we evaluated whether these affinities aligned with the toxins' blocking efficacy on native human Kv1.3 channels, as determined by patch-clamp assay.

CC[C@H](C)[C@@H]1NC(=O)CNC(=O)[C@H](Cc2ccccc2)NC(=O)[C@H](CCC(N)=O)NC(=O)[C@H](C)NC(=O)[C@H](CCCCN)NC(=O)[C@@H]2CSSC[C@@H](C(=O)N[C@@H](Cc3ccc(O)cc3)C(=O)N3CCC[C@H]3C(=O)N[C@@H](Cc3c[nH]cn3)C(=O)O)NC(=O)[C@H](CCCCN)NC(=O)[C@@H]3CSSC[C@H](NC(=O)[C@H](CCC(N)=O)NC(=O)[C@H](CCCCN)NC(=O)[C@@H]4CCCN4C(=O)[C@H](CO)NC(=O)[C@H]([C@@H](C)O)NC(=O)[C@@H](NC(=O)[C@H](CCCCN)NC(=O)[C@@H](NC(=O)[C@H](CC(=O)O)NC(=O)[C@@H](NC(=O)[C@@H](NC(=O)[C@@H](N)[C@@H](C)O)C(C)C)[C@@H](C)CC)C(C)C)CSSC[C@H](NC(=O)[C@H](CCCCN)NC(=O)[C@H](C)NC(=O)CNC(=O)[C@H](C)NC(=O)[C@H](CCCNC(=N)N)NC1=O)C(=O)N[C@@H](CCSC)C(=O)N[C@@H](CC(N)=O)C(=O)NCC(=O)N[C@@H](CCCCN)C(=O)N3)C(=O)N[C@@H](CC(C)C)C(=O)N1CCC[C@H]1C(=O)N1CCC[C@H]1C(=O)N2 [HgTx1, Hongotoxin-1] (HELM PEPTIDE1{T.V.I.D.V.K.C.T.S.P.K.Q.C.L.P.P.C.K.A.Q.F.G.I.R.A.G.A.K.C.M.N.G.K.C.K.C.Y.P.H}$PEPTIDE1,PEPTIDE1,7:R3-29:R3|PEPTIDE1,PEPTIDE1,13:R3-34:R3|PEPTIDE1,PEPTIDE1,17:R3-36:R3$$$V2.0; N-terminus and C-terminus assumed)
estimated relative potency in phage-displayed form [1]: 1/30
inhibition of Kv1.3 current in phage-displayed form, in words [1]: significant inhibition
inhibition of Kv1.3, in words (human Kv1.3): equivalent high potency
IC50 (human Kv1.3): 0.086 nM

CC[C@H](C)[C@H](NC(=O)[C@H](CCC(=O)O)NC(=O)[C@@H](NC(=O)CN)C(C)C)C(=O)N[C@@H](CC(N)=O)C(=O)N[C@H](C(=O)N[C@@H](CCCCN)C(=O)N[C@H]1CSSC[C@@H]2NC(=O)[C@H](CCCCN)NC(=O)CNC(=O)[C@H](Cc3ccccc3)NC(=O)[C@H](CCCNC(=N)N)NC(=O)[C@H](CCSC)NC(=O)CNC(=O)[C@H](C)NC(=O)[C@H](CC(=O)O)NC(=O)[C@H](CCCCN)NC(=O)[C@@H]3CSSC[C@@H](C(=O)N[C@H](C(=O)N4CCC[C@H]4C(=O)N[C@@H](CCCCN)C(=O)O)[C@@H](C)O)NC(=O)[C@H](Cc4c[nH]cn4)NC(=O)[C@H](CSSC[C@H](NC(=O)[C@H](CCC(N)=O)NC(=O)[C@@H]4CCCN4C(=O)[C@H](CO)NC(=O)CNC(=O)[C@H](CO)NC1=O)C(=O)N[C@@H](CC(C)C)C(=O)N[C@@H](CCCCN)C(=O)N1CCC[C@H]1C(=O)N3)NC(=O)[C@H](CCCCN)NC(=O)[C@H](CCCNC(=N)N)NC(=O)[C@H](CC(N)=O)NC(=O)[C@H](CCSC)NC2=O)C(C)C [KTX1, Kaliotoxin-1]
estimated relative potency in phage-displayed form [1]: < 1/600
inhibition of Kv1.3 current in phage-displayed form, in words [1]: significant inhibition
IC50 (human Kv1.3): 0.65 nM

CC[C@H](C)[C@H](NC(=O)[C@H](C)NC(=O)[C@H](C)NC(=O)[C@H](C)N)C(=O)N[C@@H](CO)C(=O)N[C@H]1CSSC[C@@H]2NC(=O)[C@H](CCCCN)NC(=O)CNC(=O)[C@H](CC(N)=O)NC(=O)[C@H](CCCCN)NC(=O)[C@@H]3CSSC[C@@H](C(N)=O)NC(=O)[C@H](Cc4ccc(O)cc4)NC(=O)[C@H](Cc4ccc(O)cc4)NC(=O)[C@@H]4CSSC[C@H](NC(=O)[C@H](CCCCN)NC(=O)[C@@H]5CCCN5C(=O)[C@@H]5CCCN5C(=O)[C@H](CSSC[C@H](NC(=O)[C@H](CCCCN)NC(=O)[C@H](CCCNC(=N)N)NC(=O)[C@H](CC(N)=O)NC(=O)[C@H](CCSC)NC2=O)C(=O)N[C@@H](CCCCN)C(=O)N4)NC(=O)[C@H](CCC(=O)O)NC(=O)[C@@H]2CCCN2C(=O)[C@H](CO)NC(=O)CNC(=O)[C@H](C(C)C)NC1=O)C(=O)N[C@@H](CCCNC(=N)N)C(=O)N[C@@H](C)C(=O)N[C@@H](CCC(N)=O)C(=O)NCC(=O)N3 [Vm24, Vm24 toxin]
estimated relative potency in phage-displayed form [1]: approximately 1
inhibition of Kv1.3 current in phage-displayed form, in words [1]: significant inhibition
IC50 (human Kv1.3): 0.003 nM
